This note sets out measurements from patent publication US20220267390A1, “MPS MODIFIED PEPTIDES AND USE THEREOF” (The Regents of the University of California, priority 2019, published 2022).

Where no end group is shown, it is not given here.

Experiment [1] concerns phospho-MARCKS, phospho-AKT and α-SMA. The experiment is described as follows: Western blot in lung fibroblast cells isolated from bleomycin-treated mice. The format is cell-based. The following applies: 100 μM, 48 hours, fibroblasts from bleomycin-treated mice. On the procedure:
FIGS. 7A-7B: (FIG. 7A) Western blots analysis of phospho-MARCKS, phospho-AKT and α-SMA expression in lung fibroblast cells isolated from saline- or bleomycin-treated mice after 48 hours of treatment with control or MPS peptides (100 μM). (FIG. 7B) Effect of MPS peptide on cell viability of lung fibroblasts isolated from saline- (mFb-Saline) or bleomycin-treated (mFb-Bleomycin) mice (n=4; *, p<0.05).
MPS peptide potentially serves as an antifibrotic agent in bleomycin-induced pulmonary fibrosis. Bleomycin remains the standard agent for induction of experimental pulmonary fibrosis in animals^23. Thus, 8-week-old female C57BL/6J mice received saline or bleomycin intratracheally (33 μg in […] of saline) as previously described^23. Lung specimens from bleomycin- or saline-treated mice were collected and subjected to immunofluorescence staining. […] Next, lung fibroblast cells isolated from saline- or bleomycin-treated mice (two mice fibroblast cell lines were gifts from Dr. Sem H. Phan, University of Michigan School of Medicine, MI) were incubated with either 100 μM control or MPS peptide for 48 hours. […] The feasibility of the MPS peptide as an antifibrotic agent in a bleomycin-induced pulmonary fibrosis was tested. […] Saline- and bleomycin-exposed mice then were treated with either PBS or MPS peptide (28 mg/kg) intraperitoneally every other day. To ascertain the therapeutic effect of MPS peptide on pulmonary fibrosis, MPS was administered intraperitoneally during the “fibrotic” phase of the model. […]
Western blot analyses and the preparations of whole-cell lysates have been previously described^14, 16, 27 For whole cell lysates, cells were lysed in a lysis buffer (50 mM Tris-HCl (pH 7.4), 1% Triton X-100, 10% glycerol, 150 mM NaCl, 1 mM EDTA, 20 μg/ml leupeptin, 1 mM PMSF and 20 μg/ml aprotinin) and separated by SDS-PAGE. […] The cells were mounted onto slides and visualized using fluorescence microscopy (model Axiovert 100; Carl Zeiss, Oberkochen, Germany) or a Zeiss LSM510 laser-scanning confocal microscope image system.

Experiment [2] concerns PIP3. The experiment is described as follows: Immunocytochemistry with anti-PIP3 antibodies in IPF lung fibroblast cells. Conditions: 100 μM, 12 hours. The class given is cell-based, human. On the procedure: Multiple IPF lung fibroblast cells were treated with either PBS or 100 μM of MPS peptide for 12 hours and then subjected to immunocytochemistry using anti-PIP3 antibodies. Representative images are shown (n=3). Scale bar: 20 μm.
MARCKS levels and activity (phospho-MARCKS) were correlated with higher pro-fibrotic activity including cell proliferation, extracellular matrix production, invasiveness, and fibroblast differentiation. Upon treatment with MPS peptides, which target MARCKS activity, Applicant observes attentuation of these activities. The second significant finding was that MARCKS mediates these profibrotic effects through through the PI3K/AKT pathway. […] Targeting of these activities with MPS peptide results in decreased AKT activity and downstream pro-fibrotic signals. The mechanism through which this occurs is through regulation of PIP2 availability at the cell membrane. In an unphosprylated state, MARCKS is able to bind PIP2 at the cell membrane, preventing PI3K proteins from converting PIP2 into PIP3 and effecting downstream AKT activity. Upon phosphorylation, MARCKS is released from the cell membrane into the cytosol, freeing up PIP2 and allowing PI3K to convert PIP2 into PIP3. […] Applicant obtained multiple IPF lung fibroblast cells and treated them with either PBS or 100 μM MPS peptide for 12 hours and subjected to immunocytochemistry utilizing anti-PIP3 antibody.

Experiment [3] has as its system oncospheres derived from H292 cells. The experiment is described as follows: Sphere-forming assay, smoke-enriched oncospheres derived from H292 cells. The format is cell-based. The text has this:
FIG. 18A-18C: (FIG. 18A) Sphere-forming assays for evaluating the inhibitory effect of the MPS peptide on smoke-mediated stemness. (FIG. 18B) Quantification of the number and size of oncospheres. (FIG. 18C) RT-qPCR analyses of mRNA expression in the above oncospheres.
Targeting the MARCKS PSD is associated with inhibition of stem-like cell properties. In light of the importance of the PSD in the functionality of MARCKS protein, Applicant designed a 25-mer MPS peptide to mimic the MARCKS phosphorylation site domain (PSD). […] Applicant's initial studies have shown that elevation of phospho-MARCKS in lung cancer spheres acted in parallel with increased stemness markers, such as CD133, Oct3/4, SOX2 and Nanog (data not included). The oncospheres were derived from high MARCKS-expressing lung cancer cell lines (H1975 and CL1-5) and primary lung cancer cells (LG704 and LC3: pleural effusion cells isolated from patients with advanced stage) in non-adherent serum-free culture conditions as described previously^30-32. Flow cytometry confirmed that ˜80% of LG704 oncosphere cells are CD133-positive, a major lung CSCs marker. […] The sphere-forming ability was assessed by counting the number and size of tumor spheres (oncospheres) under a microscope. […]

Consider KKKKKRFSFKKSFKLSGFSFKKNKK [MPS peptide], for which, in experiment [1], the phospho-AKT expression result is recorded as “decrease”, the phospho-MARCKS expression result is reported as “decrease” and the α-SMA expression result is given as “decrease”. Further, the PIP3 levels entry in experiment [2] is on record as “reduced”. The “number and size of oncospheres” value in experiment [3] is “inhibitory effects”. Also, in experiment [3] (RT-qPCR), the “expression of stemness genes” value is “inhibitory effects”.
